Assay [1] has as its system IFNγ+ cells in human peripheral blood. As to the kind of experiment: induction of IFNγ+ cells in human peripheral blood in vitro (ELISPOT). It is filed as cell-based. As to the method: For induction of human primary IFNγ+ cells, heparinized peripheral blood samples were obtained by vein-puncture from healthy volunteers following an established protocol approved by the Institutional Review Board (IRB) of Cleveland Clinic. To mimic in vivo drug-exposure, human peripheral blood samples were directly treated with different agents without pre-separation of white blood cells from other blood components. Blood samples (0.1 ml/sample) were mixed with the agents, incubated at 37° C. for 4 hrs, diluted with 5 volumes of hypotonic solution (10 mM Tris, pH 7.4; 10 mM NaCl) to lyse RBC and centrifuged to pellet WBCs. The pellets were washed with hypotonic solution one time, re-suspended in RPMI 1640 medium (10% FCS) and used for ELISPOT assays (Human IFNγ ELISPOT Kit, R & D System) to quantify human IFNγ+ cells as outlined above.

Assay [2] has as its target T1, recombinant SHP-1 (Homo sapiens, UniProt P29350).
T1 construct: Recombinant protein of SHP-1 PTPase catalytic domain was described
T1 sequence (P29350 244-515 limits assumed): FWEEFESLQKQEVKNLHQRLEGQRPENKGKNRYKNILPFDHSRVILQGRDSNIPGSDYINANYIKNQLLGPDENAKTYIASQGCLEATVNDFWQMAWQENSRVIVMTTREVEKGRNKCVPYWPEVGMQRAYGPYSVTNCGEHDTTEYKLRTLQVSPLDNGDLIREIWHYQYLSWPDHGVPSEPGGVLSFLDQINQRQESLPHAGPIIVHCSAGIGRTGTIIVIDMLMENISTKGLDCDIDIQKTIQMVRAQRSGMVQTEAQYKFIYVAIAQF
As to the kind of experiment: rapid in vitro SHP-1 PTPase assay (DIFMUP substrate). It counts as biochemical. The note with it: 1 μg/well; FIG. 12A. As to the method: Recombinant protein of SHP-1 PTPase catalytic domain was described and stored in Tris buffer (25 mM Tris, pH7.5, 1 mM EDTA, 2 μM 2-ME, 25% glycerol) at −80° C. Fluorescence substrate DIFMUP (6,8-difluoro-4 methylumbelliferyl phosphate) was purchased (Molecular Probes). SSG was reported previously (21-23) and stored at 4° C. in darkness prior to use. Human and mouse IFNγ ELISPOT Kit (R & D System), CD4^+ Cell Intracellular IFNγ Detection Kit (BD Bioscience) and CD8^+ Cell Intracellular IFNγ Detection Kit (BD Bioscience) were purchased from commercial sources. Human Jurkat T cell line (26) and murine B16 melanoma cell line (ATCC) were maintained in […] culture medium supplemented with 10% fetal calf serum (FCS). Antibodies against pLck-pY394 (Cell Signaling), pLck-pY505 (Cell Signaling), pZap70 (pY319, BD Biosciences), pSlp76 (pY128, BD Biosciences) and pLat (pY226, BD Biosciences) were purchased from commercial sources.
(§1) A rapid SHP-1 PTPase assay was developed for screening the compounds in a commercial library of 34,000 drug-like small chemicals (Chembridge, Mass.). Briefly, compounds of the library (1 μg/well in 0.21 DMSO) were placed in 96-well plates (Falcon, 353072) and mixed with recombinant SHP-1 protein (0.1 μg/well) in 90 μl of HEPES buffer (50 mM HEPS, pH 7.5, 150 mM NaCl, 1 mM EDTA, 0.2 mM DTT and 0.1 mg/ml BSA). The plates were incubated at room temperature for 10 minutes prior to the addition of fluorescence substrate DIFMUP (40 μM stock in HEPES buffer, 10 μl/well) to initiate PTPase reaction. Upon completion of PTPase reaction at room temperature for 1 hr in darkness, fluorescence signal of individual wells were recorded using a Vector^2 Multilabel Counter (Vector, CA). They were compared to that of control SHP-1 PTPase reaction (˜10,000 units of fluorescence signal) in the absence of any compound (100%) for calculating relative SHP-1 inhibition induced by the compounds after subtracting the background signal (˜500 units of fluorescence signal) of the substrate.
as §1, with “To evaluate their” for “A rapid”, “inhibitory activity,” for “PTPase assay was developed for screening”, “analogs” for “compounds in a commercial library of 34,000 drug-like small chemicals (Chembridge, Mass.). Briefly, compounds of the library”, “0.2 μl” for “0.21”, “aliquot individually to” for “placed in”, “(500” for “(˜500”

For `O=C1C=CC(=O)C(c2cc(Cl)ccc2Cl)=C1` [L5], the “maximal induction of IFNγ+ cells in human peripheral blood” value in assay [1] (8 μg/ml) amounted to 20 fold. In addition, the “effectiveness compared with SSG in inducing IFNγ+ cells” value in assay [1] (maximal induction at a comparable dose, human peripheral blood) is on record as about 20 fold. Also, the “inhibition of phosphatase activity of recombinant SHP-1” value in assay [2] was “completely or almost completely inhibited”.

The values are drawn from patent US20080051464A1, “Protein phosphatase inhibitors” (The Cleveland Clinic Foundation, priority 2006, published 2008).
